According to ChEMBL document CHEMBL1150935, “New polyketides from the sponge Plakortis sp” (J Nat Prod, 1998):
≈ marks a conversion by molar mass, not a printed value.

Assay: Toxicity against Artemia larvae
Assay type: organism-based
Settings: in vivo, read-out: LD50 (the source's name)

Compound	LC50
CCCC[C@H](C)C[C@]1(CC)C=C(CC)/C(=C/C(=O)OC)O1	7 µg/mL (≈ 23.8 µM)
CCCC[C@H](C)CC1(CC)C=C(CC)C(CC(=O)OC)OO1 (some centres undefined)	70 µg/mL (≈ 224 µM)
CCCC[C@H](C)CC1(CC)C=C(CC)C(CC(=O)OCC)OO1 (some centres undefined)	> 100 µg/mL
CCCC[C@H](C)CC(CC)C[C@@]1(CC)C[C@H](CC)[C@H](CC(=O)O)OO1 (some centres undefined)	15 µg/mL (≈ 42.1 µM)
